Data on one substance can be found in publication PMC9102668, “Highly Cytotoxic Osmium(II) Compounds and Their Ruthenium(II) Analogues Targeting Ovarian Carcinoma Cell Lines and Evading Cisplatin Resistance Mechanisms” (International Journal of Molecular Sciences, 2022).

Holding throughout (assay type): cell-based
The test system of one data set is all cancer cell lines. Nature of the data set: Mean IC50 (MTT assay) for all cancer cell lines. How it is done:
Thus, it can be concluded that the biological activity is mediated by a longer chain (butoxy) at the meta-position, whereas the ortho- and para-positions are more suitable with a shorter chain (ethoxy). To have a further look at the influence of the different ligand systems and substitution patterns, all β-Hydroxydithiocinnamic acid alkyl esters were tested under same conditions as their derived ruthenium(II) complexes (Figure 5B, Supplementary Table S3). […] All ligands are less cytotoxic than Cisplatin itself and therefore the metal(II) center is necessary for the high cytotoxic activity, what is in clear contrast to the literature for O,S-chelating ruthenium(II) or osmium(II) compounds with thiomaltol ligand [48, 71] but confirmed for Ru(II)/Os(II) compounds with N,N-bidentate glycosyl heterocyclic ligands. This is exemplarily shown by the comparison of mean IC50 values for Cisplatin, L14, and Ru14 (Supplementary Figure S8).
Ovarian cancer cell lines were cultured under standard conditions (5% CO2, 37 °C, 90% humidity) in RPMI medium supplemented with 10% FCS, 100 U/mL penicillin and 100 µg/mL streptomycin (Life Technologies, Dreieich, Germany). […] The proportion of viable cells was quantified by the MTT assay and after background subtraction relative values compared to the mean of medium controls were calculated. […]

The subject of data set [1] is A2780 and SKOV3 cells and the resistant subcultures. The data set can be described thus: Cell cycle distribution, PI staining and FACS. The note with it: 48 h treatment, 24 h recovery. As for the experimental part:
The reduced viability under treatment, as measured by the MTT assay, can be a result of cell cycle arrest and/or increased cell death. To further evaluate the anticancer properties of the ruthenium(II) complexes we measured cell cycle distribution and cell death rates after treatment with Ru3 or Ru14. After seeding and attaching, the cells were treated for 48 h with different concentrations of substances. For cell cycle distribution measurements, a recovery phase of 24 h was added after treatment, and cells were fixed and stained with PI for the DNA content. Arresting of cells in specific cell cycle phases gives them time to resolve the DNA damage (G1 arrest) or is an initial step to apoptosis if DNA damage is too severe (G2/M arrest).
(§1) To examine cell cycle distribution and cell death rates, 30,000 cells were seeded in 12 well plates. After attaching for 24 h cells were treated with Cisplatin, Ru3 and Ru14 for 48 h at various concentrations for cell cycle and cell death analyses. For cell death analysis, immediately after treatment cells were stained with Propidium Iodid (PI) (1 µg/mL) on ice and the number of dead cells was measured using BD Canto II. For cell cycle distribution, cells recovered for 24 h after treatment. Afterwards, cells were fixed in ice-cold, 50% EtOH for 24 h at −20 °C. For DNA staining, fixed cells were incubated in PBS with 0.05% Triton-X, 0.1 µg/mL RNaseA and 50 µg/mL PI for 1 h at 4 °C in dark. DNA content was measured using BD Canto II.

A further data set relates to MCF10A. Nature of the data set: IC50 on non-cancerous cell cultures. The conditions noted are these: non-cancerous breast epithelial cell line.
Another data set has as its system SKOV3cis. Nature of the data set: MTT assay (CellTiter96), cytotoxic activity. In general terms: Tetrazolium dyes change colour on reduction, which living cells bring about.
The subject of the next data set is A549. Nature of the data set: MTT assay (CellTiter96), cytotoxic activity. The note with it: lung carcinoma cell line, 48 h incubation.
The subject of another data set is SKOV3. Nature of the data set: MTT assay (CellTiter96), cytotoxic activity. The conditions noted are these: 48 h incubation.
Another data set has as its system A2780cis. Nature of the data set: MTT assay (CellTiter96), cytotoxic activity.
Another data set has as its system A2780. The data set can be described thus: MTT assay (CellTiter96), cytotoxic activity. The note with it: 48 h incubation.
A further data set concerns A2780 cells. Nature of the data set: Cell death rate, PI staining of live cells (FACS). The note with it: A2780 and SKOV3 cells, 20 µM and 30 µM, 48 h. How it is done:
For cell death rate analysis, live cells were stained with PI immediately after 48 h treatment. […] Furthermore, resistant cells show much lower Cisplatin-induced cell death rates (Figure 7). […] In A2780 cells, both compounds trigger similar cell death rates in parental and Cisplatin-resistant cells. Cisplatin-resistant SKOV3 are much more sensitive to both ruthenium(II) complexes than the parental counterpart, with a median of 3.3-fold higher sensitivity.
as §1

The subject of another data set is Keratinocytes. The data set can be described thus: IC50 on non-cancerous cell cultures. The note with it: normal primary short-term cell culture.

As a reminder, the IC50 is the concentration that inhibits the measured activity by half. As for “[(η^6-p-cymene)Ru(1-(3-ethoxyphenyl)-3-(methylthio)-3-thioxo-prop-1-en-1-olate-O,S)] [Ru14]”, the “mean IC50 value / cytotoxicity for all cancer cell lines compared with Cisplatin” value in the data set on all cancer cell lines is “lower”. In data set [1], the “effect on cell cycle distribution” value is recorded as “no or only a minor effect on cell cycle distribution”. For the same substance, the half-inhibitory concentration (IC50) came to 16.7 µM in the data set on MCF10A; 5.1 µM in the data set on SKOV3cis (Cisplatin resistant SKOV3, MTT assay, 48 h incubation); 2.7 µM in the data set with A549; 3.5 µM in the data set on SKOV3; 2.9 µM in the data set with A2780cis (Cisplatin resistant A2780, MTT assay, 48 h incubation); 1.9 µM in the data set on A2780. Further, the IC50 in the data set on Keratinocytes was over 100 µM. Further, the “RF SKOV3 (resistance factor)” value in the data set with SKOV3cis (SKOV3cis vs SKOV3) worked out at 1.5. In addition, the “RF A2780 (resistance factor)” value with A2780cis (A2780cis vs A2780) was 1.5. The “capacity to induce cell death in vitro” value in the data set on A2780 cells is reported as “high capacity to induce cell death”.
